Columns and labels:
[1] = tested on: lung adenocarcinoma cell line HCC4006; assay: HCC4006 cell growth inhibition test (Test Example 2); type: cell-based; settings: Homo sapiens, 120 h; 1 μM test compound; HCC4006 cells, culture for 5 days, CellTiter-Glo; read-out: Rate of inhibition (%) at 1 μM
Description: A lung adenocarcinoma cell line HCC4006 (ATCC) was cultured using an RPMI-1640 medium (Wako Pure Chemical Industries, Ltd.) containing 10% fetal bovine serum and penicillin/streptomycin. 250 cells per well were inoculated into 40 μL of a medium in a 384-well culture plate. On the next day, 10 μL of each test compound was added to the cells. After culture for 5 days, the medium was discarded, and 30 μL of CellTiter-Glo Luminescent Cell Viability Assay solution (Promega Corp., Fitchburg, Wis., U.S.) was added to each well. Light emission signals were measured using EnVision (PerkinElmer, Inc., Waltham, Mass., U.S.).
The rate of inhibition (%) by the test compound was calculated according to the following expression: Rate of inhibition (%)=(1−(Count of the test compound−Blank)/(Control−Blank))×100
In the above expression, a count under compound non-addition conditions was indicated as a control, and a count under cell-free conditions was indicated as a blank.

[2] = biological target: T1, SPT (SPT2-expressing membrane fraction: human SPT1, human SPT2 and human ssSPTa) (Homo sapiens, UniProt O15269+O15270); assay: SPT enzyme inhibition test (Test Example 1); type: biochemical; settings: read-out: Rate of inhibition (%) at 1 μM
T1 construct: Full-length human SPT1, human SPT2 and human ssSPTa used; made in house; host or cells: FreeStyle 293 cells (pcDNA3.1 vectors, cotransfection); crude membrane fraction used
T1 sequence (O15269 1-473): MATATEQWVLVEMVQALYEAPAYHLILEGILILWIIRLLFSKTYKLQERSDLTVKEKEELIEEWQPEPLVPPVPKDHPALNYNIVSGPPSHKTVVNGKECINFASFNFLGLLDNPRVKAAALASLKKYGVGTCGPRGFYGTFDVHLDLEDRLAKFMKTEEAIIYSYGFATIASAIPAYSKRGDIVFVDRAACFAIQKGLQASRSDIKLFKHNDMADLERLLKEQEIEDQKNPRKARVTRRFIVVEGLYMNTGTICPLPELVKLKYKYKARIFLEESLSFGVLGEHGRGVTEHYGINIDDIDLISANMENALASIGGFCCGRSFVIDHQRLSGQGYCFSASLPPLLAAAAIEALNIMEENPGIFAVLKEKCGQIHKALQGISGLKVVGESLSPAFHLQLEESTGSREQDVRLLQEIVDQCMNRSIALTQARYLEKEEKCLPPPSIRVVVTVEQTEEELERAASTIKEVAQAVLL
T1 sequence (O15270 1-562): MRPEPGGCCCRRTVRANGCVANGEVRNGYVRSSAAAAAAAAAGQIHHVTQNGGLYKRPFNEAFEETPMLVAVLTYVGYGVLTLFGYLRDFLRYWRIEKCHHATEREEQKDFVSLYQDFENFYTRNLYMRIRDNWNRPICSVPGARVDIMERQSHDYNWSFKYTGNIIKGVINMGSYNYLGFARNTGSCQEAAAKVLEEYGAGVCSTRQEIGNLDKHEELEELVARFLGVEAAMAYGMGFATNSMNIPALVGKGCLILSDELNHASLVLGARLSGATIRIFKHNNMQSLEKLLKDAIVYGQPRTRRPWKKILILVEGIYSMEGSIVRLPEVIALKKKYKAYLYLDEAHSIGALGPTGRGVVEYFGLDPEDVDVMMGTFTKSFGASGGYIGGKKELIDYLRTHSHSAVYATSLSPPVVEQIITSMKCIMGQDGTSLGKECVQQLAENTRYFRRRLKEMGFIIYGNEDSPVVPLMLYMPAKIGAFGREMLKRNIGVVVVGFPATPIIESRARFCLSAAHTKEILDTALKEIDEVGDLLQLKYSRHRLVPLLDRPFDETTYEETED
T1 sequence (Q969W0 1-71 partner): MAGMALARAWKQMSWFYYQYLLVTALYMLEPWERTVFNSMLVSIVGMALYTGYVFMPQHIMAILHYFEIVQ
Description: After culture for 3 days, the cells were recovered and frozen at −80° C. to obtain expressing cells. The frozen cells were suspended in a 50 mM Hepes buffer (pH 7.5) containing 250 mM sucrose, 5 mM ethylenediaminetetraacetic acid (EDTA), 5 mM dithiothreitol (DTT) and Complete, EDTA-free (Roche Applied Science, Penzberg, Upper Bavaria, Germany). The cells were disrupted (on ice, 20,000 rpm, 20 sec×2) using POLYTORON (Central Scientific Commerce, Inc.). After centrifugation at 2000 rpm (850×g) for 10 minutes, the supernatant was recovered. Subsequently, the supernatant was centrifuged at 40,000 rpm (186,010×g) for 60 minutes, and the supernatant was discarded. The pellets were suspended in a 50 mM Hepes buffer (pH 7.5) containing 5 mM EDTA, 5 mM DTT and Complete, EDTA-free, passed through a 40-μm cell strainer and stored at −80° C. The resultant was used as a SPT2-expressing membrane fraction. The protein concentration was determined using CBB Protein Assay with bovine serum albumin used as standards.
5 μL of each test compound was mixed with 10 μL of the 100 μg/mL SPT2-expressing membrane fraction using an assay buffer (100 mM Hepes (pH 8.0) containing 2.5 mM EDTA, 5 mM DTT and 0.01% fatty acid-free bovine serum albumin), and the mixture was left standing at room temperature for 60 minutes. Subsequently, 5 μL of a substrate solution containing 2 mM L-serine and 20 μM palmitoyl CoA was added thereto, and an enzyme reaction was carried out in a 384-well plate using 20 μL in total of the reaction system. After reaction at room temperature for 15 minutes, the reaction was terminated by the addition of 20 μL of a 2% aqueous formic acid solution. Subsequently, 40 μL of acetonitrile containing 600 nM C17-sphinganine (Avanti Polar Lipids, Inc., Alabaster, Ala., U.S.) was added thereto as an internal standard. The reaction sample was subjected to on-line solid-layer extraction using RapidFire 300 (Agilent Technologies Inc., Santa Clara, Calif., U.S.). […] Mass chromatograms were obtained using Analyst software (version 1.5.0, AB SCIEX). Their mass chromatogram areas were respectively calculated, and the rate of inhibition (%) by the test compound was calculated using an area ratio (the value of the reaction product was divided by the value of the internal standard).

| Structure (SMILES) | inhibition at 1 µM [2] | inhibition at 1 µM [1] |
| --- | --- | --- |
| CCn1ncc2c1[C@@H](NC(=O)c1ccccc1OC(F)(F)F)CCN2C(=O)c1cnc(OC)c(OC)c1 [Example 178A, N-((7S)-4-((5,6-Dimethoxypyridin-3-yl)carbonyl)-1-ethyl-4,5,6,7-tetrahydro-1H-pyrazolo[4,3-b]pyridin-7-yl)-2-(trifluoromethoxy)benzamide] | 101% | 53% |
| COc1cc(C(=O)N2CC[C@@H](NC(=O)c3ncccc3C(F)(F)F)[C@@H](c3ccccc3)C2)cnc1OC [Example 64B, N-((3S,4R)-1-((5,6-dimethoxypyridin-3-yl)carbonyl)-3-phenylpiperidin-4-yl)-3-(trifluoromethyl)pyridine-2-carboxamide] | 100% | 49% |
| Cc1cc(C(=O)N[C@@H]2CCN(C(=O)c3cc(Cl)c4nccnc4c3)C[C@@H]2c2ccc(F)cc2)n(C)n1 [Example 58B, N-((3S,4R)-1-((8-chloroquinoxalin-6-yl)carbonyl)-3-(4-fluorophenyl)piperidin-4-yl)-1,3-dimethyl-1H-pyrazole-5-carboxamide] | 101% | 49% |
| COc1ccc(C(=O)N2CCC(NC(=O)c3ccccc3Cl)c3cn(C)nc32)cc1OC (centres unmarked) [Example 3A, 2-Chloro-N-(7-(3,4-dimethoxybenzoyl)-2-methyl-4,5,6,7-tetrahydro-2H-pyrazolo[3,4-b]pyridin-4-yl)benzamide] | 98% | 41% |
| COc1cc(C(=O)N2CC[C@@H](NC(=O)c3cn(C)nc3C)[C@@H](c3ccccc3)C2)cnc1OC [Example 152B, N-((3S,4R)-1-((5,6-dimethoxypyridin-3-yl)carbonyl)-3-phenylpiperidin-4-yl)-1,3-dimethyl-1H-pyrazole-4-carboxamide] | 96% | 33% |
| COc1cc(C(=O)N2CC[C@@H](NC(=O)c3cnn(C)c3Cl)[C@@H](c3ccccc3)C2)cnc1OC [Example 150B, 5-chloro-N-((3S,4R)-1-((5,6-dimethoxypyridin-3-yl)carbonyl)-3-phenylpiperidin-4-yl)-1-methyl-1H-pyrazole-4-carboxamide] | 101% | 47% |
| COc1cc(C(=O)N2CC[C@@H](NC(=O)c3ccccc3S(C)(=O)=O)[C@@H](c3ccccc3)C2)cnc1OC [Example 141B, N-((3S,4R)-1-((5,6-dimethoxypyridin-3-yl)carbonyl)-3-phenylpiperidin-4-yl)-2-(methylsulfonyl)benzamide] | 101% | 52% |
| COc1cc(C(=O)N2CC[C@H](NC(=O)c3ccccc3OC(F)(F)F)c3c2cnn3C)cnc1OC [Example 171A, N-((7S)-4-((5,6-Dimethoxypyridin-3-yl)carbonyl)-1-methyl-4,5,6,7-tetrahydro-1H-pyrazolo[4,3-b]pyridin-7-yl)-2-(trifluoromethoxy)benzamide] | 101% | 50% |
| CCOc1cc(C(=O)N[C@@H]2CCN(C(=O)c3cc(Cl)c4nccnc4c3)C[C@@H]2c2ccccc2)n(C)n1 [Example 170B, N-((3S,4R)-1-((8-Chloroquinoxalin-6-yl)carbonyl)-3-phenylpiperidin-4-yl)-3-ethoxy-1-methyl-1H-pyrazole-5-carboxamide] | 100% | 50% |

The next lines start with results.

| inhibition at 1 µM [2] | Structure (SMILES) | inhibition at 1 µM [1] |
| --- | --- | --- |
| 102% | COc1cc(C(=O)N2CC[C@@H](NC(=O)c3c(C)nn(C)c3Cl)[C@@H](c3ccccc3)C2)cc2nccnc12 [Example 345B, 5-chloro-N-((3S,4R)-1-((8-methoxyquinoxalin-6-yl)carbonyl)-3-phenylpiperidin-4-yl)-1,3-dimethyl-1H-pyrazole-4-carboxamide] | 48% |
| 102% | COc1cc(C(=O)N2CC[C@@H](NC(=O)c3ccccc3OC(F)F)[C@H](c3ccc(F)cc3)C2)cnc1OC [Example 361B, 2-(difluoromethoxy)-N-((3R,4R)-1-((5,6-dimethoxypyridin-3-yl)carbonyl)-3-(4-fluorophenyl)piperidin-4-yl)benzamide] | 45% |
| 100% | COc1cc(C(=O)N2CC[C@@H](NC(=O)c3ncccc3C(F)(F)F)[C@@H](c3ccc(F)cc3)C2)cnc1OC [Example 191B, N-((3S,4R)-1-((5,6-dimethoxypyridin-3-yl)carbonyl)-3-(4-fluorophenyl)piperidin-4-yl)-3-(trifluoromethyl)pyridine-2-carboxamide] | 47% |
| 103% | Cc1cc(C(=O)N2CC[C@@H](NC(=O)c3ncccc3C(F)(F)F)[C@@H](c3ccccc3)C2)cn2c(C)cnc12 [Example 279B, N-((3S,4R)-1-((3,8-dimethylimidazo[1,2-a]pyridin-6-yl)carbonyl)-3-phenylpiperidin-4-yl)-3-(trifluoromethyl)pyridine-2-carboxamide] | 44% |
| 101% | COc1ccc(C(=O)N2CCC(NC(=O)c3ccccc3Cl)c3c2cnn3CCC(C)(C)O)cc1OC (centres unmarked) [Example 186A, 2-chloro-N-(4-(3,4-dimethoxybenzoyl)-1-(3-hydroxy-3-methylbutyl)-4,5,6,7-tetrahydro-1H-pyrazolo[4,3-b]pyridin-7-yl)benzamide] | 47% |
| 102% | COc1cc(C(=O)N2CC[C@@H](NC(=O)c3cc(C(F)(F)F)nn3C)[C@@H](c3ccc(F)cc3)C2)cc2nccnc12 [Example 352B, N-((3S,4R)-3-(4-fluorophenyl)-1-((8-methoxyquinoxalin-6-yl)carbonyl)piperidin-4-yl)-1-methyl-3-(trifluoromethyl)-1H-pyrazole-5-carboxamide] | 50% |
| 99% | COc1cc(C(=O)N2CC[C@@H](NC(=O)c3c(C)c(C)nn3C)[C@@H](c3ccccc3)C2)cc2nccnc12 [Example 324B, N-((3S,4R)-1-((8-methoxyquinoxalin-6-yl)carbonyl)-3-phenylpiperidin-4-yl)-1,3,4-trimethyl-1H-pyrazole-5-carboxamide] | 49% |

From patent US10189785B2, “Heterocyclic compound” (TAKEDA PHARMACEUTICAL COMPANY LIMITED, priority 2015, dated 2019)
